Data set [1] concerns Aspergillus clavatus. In words: Antifungal activity against Aspergillus clavatus MTCC 1323 at 250 ug/ml after 74 hrs by Kirby-Bauer method. The following applies: for zone of inhibition at 250 µg/mL: MTCC 1323, 74 h, read-out: IZ. Format: functional.
Data set [2] deals with Aspergillus clavatus. In words: Antifungal activity against Aspergillus clavatus MTCC 1323. Format: functional.
Data set [3] deals with Human immunodeficiency virus 2. Kind of data set: Antiviral activity against HIV2 ROD infected in MT4 cells assessed as inhibition of virus-induced cytopathogenicity by MTT assay. Particulars: Human immunodeficiency virus 2, ISOLATE ROD. Format: functional, organism-based.
The nature of data set [4]: Selectivity index, ratio of CC50 for human MT4 cells to IC50 for HIV2 ROD. Format: functional.
The nature of data set [5]: Cytotoxicity against human HEL cells. Format: cell-based.
For data set [6], the system named is Escherichia coli. Kind of data set: Antibacterial activity against Escherichia coli MTCC 443 after 24 hrs by broth dilution method. Format: functional. Particulars: MTCC 443, 24 h.
Data set [7] deals with Streptococcus pyogenes. In words: Antibacterial activity against Streptococcus pyogenes MTCC 442 at 250 ug/ml after 24 hrs by Kirby-Bauer method. Format: functional. Particulars: MTCC 442, 24 h, read-out: IZ.
The nature of data set [8]: Cytotoxicity against human HEL cells assessed as alteration in cell morphology. Format: cell-based.
Data set [9] relates to Pseudomonas aeruginosa. Kind of data set: Antibacterial activity against Pseudomonas aeruginosa MTCC 424 at 250 ug/ml after 24 hrs by Kirby-Bauer method. Format: functional. Particulars: MTCC 424, 24 h, read-out: IZ.
Data set [10] deals with Staphylococcus aureus. Kind of data set: Antibacterial activity against Staphylococcus aureus MTCC 96 at 250 ug/ml after 24 hrs by Kirby-Bauer method. Format: functional. Particulars: MTCC 96, 24 h, read-out: IZ.
For data set [11], the system named is Cytomegalovirus. In words: Antiviral activity against Cytomegalovirus AD-169 infected in HEL cells assessed as reduction in plaque formation. Format: functional, organism-based. Particulars: Human betaherpesvirus 5, AD-169, HEL.
Data set [12] relates to Human alphaherpesvirus 3. In words: Antiviral activity against thymidine kinase-deficient Varicella-zoster virus infected in HEL cells assessed as reduction in plaque formation. The following applies: Human alphaherpesvirus 3, HEL. Format: functional, organism-based.
In data set [13] the test system is Pseudomonas aeruginosa. In words: Antibacterial activity against Pseudomonas aeruginosa MTCC 424 after 24 hrs by broth dilution method. Format: functional. Particulars: MTCC 424, 24 h. Background: Dilution methods test growth across graded concentrations, often in twofold steps.
The subject of data set [14] is Candida albicans. In words: Antifungal activity against Candida albicans MTCC 227 at 250 ug/ml after 74 hrs by Kirby-Bauer method. Format: functional. Particulars: MTCC 227, 74 h, read-out: IZ.
The subject of data set [15] is Staphylococcus aureus. Kind of data set: Antibacterial activity against Staphylococcus aureus MTCC 96 after 24 hrs by broth dilution method. The following applies: MTCC 96, 24 h. Format: functional.
Data set [16] deals with Escherichia coli. In words: Antibacterial activity against Escherichia coli MTCC 443 at 250 ug/ml after 24 hrs by Kirby-Bauer method. Format: functional. The following applies: MTCC 443, 24 h, read-out: IZ.
Data set [17] concerns Human immunodeficiency virus 1. In words: Antiviral activity against HIV1 3B infected in MT4 cells assessed as inhibition of virus-induced cytopathogenicity by MTT assay. Format: functional, organism-based. Particulars: Human immunodeficiency virus 1, 3B. (In general: Protection from cytopathic effect is a common read-out in antiviral testing.)
Data set [18] relates to Streptococcus pyogenes. Kind of data set: Antibacterial activity against Streptococcus pyogenes MTCC 442 after 24 hrs by broth dilution method. Format: functional. The following applies: MTCC 442, 24 h.
The test system of data set [19] is Aspergillus niger. Kind of data set: Antifungal activity against Aspergillus niger MTCC 282. Format: functional.
Data set [20] has as its system Aspergillus niger. Kind of data set: Antifungal activity against Aspergillus niger MTCC 282 at 250 ug/ml after 74 hrs by Kirby-Bauer method. Format: functional. The following applies: MTCC 282, 74 h, read-out: IZ.
Data set [21] deals with Candida albicans. Kind of data set: Antifungal activity against Candida albicans MTCC 227. Format: functional.
The test system of data set [22] is Human alphaherpesvirus 3. In words: Antiviral activity against Varicella-zoster virus Oka expressing thymidine kinase infected in HEL cells assessed as reduction in plaque formation. Format: functional, organism-based. Particulars: Human alphaherpesvirus 3, strain Oka vaccine.
The nature of data set [23]: Cytotoxicity against human MT4 cells by MTT assay. Format: cell-based. In general terms: Tetrazolium dyes change colour on reduction, which living cells bring about.
Data set [24] can be described thus: Selectivity index, ratio of CC50 for human MT4 cells to IC50 for HIV1 3B. Format: functional.
In data set [25] the test system is Cytomegalovirus. In words: Antiviral activity against Cytomegalovirus Davis in HEL cells assessed as reduction in plaque formation. The following applies: Human betaherpesvirus 5, Davis. Format: functional, organism-based.

In brackets after ≈: the same amount, converted by molar mass. A value given as a limit tells only on which side of the number the result lay.

What is called MIC is the smallest concentration in the dilution series that meets the test's criterion for growth inhibition. As a reminder, the IC50 is the concentration at which inhibition is half-maximal. One may read the CC50 as the concentration at which the toxic effect on the cells reaches its halfway point. High values mean better tolerance by the cells, low ones harm at low concentration. Broadly, the EC50 is the midpoint of the concentration-response curve. For `[O-]c1on[n+](-c2ccc(Cc3ccc(-[n+]4noc([O-])c4CN4CCNCC4)cc3)cc2)c1CN1CCNCC1`, the zone of inhibition at 250 µg/mL came out at 19 mm in data set [1]; 17 mm in [7]; 21 mm in data set [9]; 18 mm in data set [10]; 21 mm in data set [14]; 21 mm in [16]. The zone of inhibition at 250 µg/mL in [20] amounted to 23 mm. Besides, the MIC in data set [2] stood at 1000 mg/L (≈ 1880 µM); in data set [6] it was 62.5 mg/L (≈ 117 µM); in data set [13], 100 mg/L (≈ 188 µM); in [15] it was 200 mg/L (≈ 376 µM); in data set [18] it was 500 mg/L (≈ 939 µM); in data set [19], 250 mg/L (≈ 469 µM). In [21], the MIC was found to be 1000 mg/L (≈ 1880 µM). Moreover, the concentration for half-maximal inhibition (IC50) in data set [3] and in data set [17] was above 14 mg/L in each case. The “Ratio CC50/IC50” value in data set [4] and in data set [24] was below 1 throughout. The CC50 in data set [5] came out at 20 mg/L (≈ 37.6 µM); in [23] it was 14 mg/L (≈ 26.3 µM). Also, in data set [8], the MCC was 100 µg/mL. The EC50 was 11.7 mg/L (≈ 22 µM) in data set [11], above 4 mg/L in data set [12], above 4 mg/L in data set [22] and 20 mg/L (≈ 37.6 µM) in data set [25].
`Cc1cn([C@H]2C[C@H](N=[N+]=[N-])[C@@H](CO)O2)c(=O)[nH]c1=O` [ZIDOVUDINE]: the IC50 in data set [3] came to 0.00094 mg/L (≈ 0.00352 µM); in data set [17], 0.0022 mg/L (≈ 0.00823 µM). Besides, the “Ratio CC50/IC50” value is listed as above 26731 in [4] and above 11587 in [24]. This compound also came in with a cytotoxic concentration (CC50) in [23] above 25 mg/L.
Turning to `O=C(N[C@H](CO)[C@H](O)c1ccc([N+](=O)[O-])cc1)C(Cl)Cl` [CHLORAMPHENICOL], the MIC in [6], in data set [13], in data set [15] and in [18] was 50 mg/L (≈ 155 µM) each time. The zone of inhibition at 250 µg/mL was 20 mm in [7], 21 mm in data set [9], 21 mm in data set [10] and 23 mm in data set [16].
Consider `CN1CCN(Cc2c([O-])on[n+]2-c2ccc(Cc3ccc(-[n+]4noc([O-])c4CN4CCN(C)CC4)cc3)cc2)CC1`, for which the zone of inhibition at 250 µg/mL in [1] is 23 mm; in [7] it was 22 mm; in data set [9], 19 mm; in data set [10] it was 16 mm; in data set [14] it was 19 mm; in data set [16] it was 19 mm. For the same compound, the zone of inhibition at 250 µg/mL in data set [20] was found to be 20 mm. The minimal inhibitory concentration (MIC) came to 500 mg/L (≈ 892 µM) in [2]; 250 mg/L (≈ 446 µM) in data set [6]; 250 mg/L (≈ 446 µM) in data set [13]; 500 mg/L (≈ 892 µM) in data set [15]; 62.5 mg/L (≈ 111 µM) in data set [18]; 1000 mg/L (≈ 1780 µM) in data set [19]. In data set [21], 500 mg/L (≈ 892 µM) was the least that counted as inhibitory (MIC).
NYSTATIN: the inhibition zone (IZ) in data set [1] turned out to be 26 mm. Also, the MIC in [2], in [19] and in data set [21] was 100 mg/L throughout.
For the compound `Nc1ccn([C@H]2CC[C@@H](CO)O2)c(=O)n1` [ZALCITABINE], the concentration for half-maximal inhibition (IC50) in [3] is 0.19 mg/L (≈ 0.9 µM); in data set [17] it was 0.16 mg/L (≈ 0.758 µM). The “Ratio CC50/IC50” value in data set [4] was above 108; in data set [24] it was above 127. In [23], this compound registered a CC50 above 20 mg/L.
On to `COC1=CC(=O)C[C@@H](C)[C@]12Oc1c(Cl)c(OC)cc(OC)c1C2=O` [GRISEOFULVIN], for which the zone of inhibition at 250 µg/mL in data set [1] was determined as 24 mm; in data set [14] it was 24 mm; in data set [20], 28 mm. Besides, the minimum inhibitory concentration (MIC) in data set [2], in data set [19] and in data set [21] was 100 mg/L (≈ 283 µM) in each case.
As to `CCn1cc(C(=O)O)c(=O)c2cc(F)c(N3CCNCC3)cc21` [NORFLOXACIN], the minimum inhibitory concentration (MIC) in data set [6], in data set [13], in data set [15] and in data set [18] was 10 mg/L (≈ 31.3 µM) throughout. In addition, the zone of inhibition at 250 µg/mL turned out to be 21 mm in data set [7], 23 mm in data set [9], 28 mm in [10] and 29 mm in [16].
`Cc1ccnc2c1NC(=O)c1cccnc1N2C1CC1` [NEVIRAPINE]: the values for the half-maximal inhibitory concentration (IC50) in data set [3] and in data set [17] were above 4 mg/L and 0.05 mg/L (≈ 0.188 µM), respectively. Moreover, the “Ratio CC50/IC50” value in data set [4] is on record as below 1; in data set [24], above 80. The compound further showed a cytotoxic concentration (CC50) in [23] above 4 mg/L.
For `Cc1ccc(-[n+]2noc([O-])c2CN2CCN(CCOCCO)CC2)cc1`, the MIC is 500 mg/L (≈ 1380 µM) in data set [6], 250 mg/L (≈ 690 µM) in data set [13], 200 mg/L (≈ 552 µM) in data set [15] and 500 mg/L (≈ 1380 µM) in data set [18]. The zone of inhibition at 250 µg/mL in [7] amounted to 16 mm; in [9] it was 21 mm; in data set [10], 19 mm; in data set [16], 16 mm.
As to `[O-]c1c[n+](-c2ccc(Cc3ccc(-[n+]4cc([O-])on4)cc3)cc2)no1`, in [5], it took 33.3 mg/L (≈ 99 µM) to reach half-maximal cytotoxicity (CC50). In [8], the MCC is at least 20 µg/mL. The EC50 in data set [11] was above 4 mg/L; in data set [12], above 4 mg/L; in data set [22], above 4 mg/L; in [25], above 20 mg/L.
In the case of `O=c1[nH]cnc2c1ncn2[C@H]1CC[C@@H](CO)O1` [DIDANOSINE], the IC50 was 3.78 mg/L (≈ 16 µM) in data set [3] and 2.09 mg/L (≈ 8.85 µM) in data set [17]. Besides, the “Ratio CC50/IC50” value in data set [4] is on record as above 13; in data set [24] it was above 24. In data set [23], this compound came in with a CC50 above 50 mg/L.
With `CC1(C)S[C@@H]2[C@H](NC(=O)[C@H](N)c3ccccc3)C(=O)N2[C@H]1C(=O)O` [AMPICILLIN], the minimum inhibitory concentration (MIC) in data set [6] is 100 mg/L (≈ 286 µM); in data set [13], 100 mg/L (≈ 286 µM); in data set [15], 250 mg/L (≈ 715 µM); in data set [18] it was 100 mg/L (≈ 286 µM). Also, the zone of inhibition at 250 µg/mL was 19 mm in data set [7], 20 mm in [9], 18 mm in data set [10] and 20 mm in data set [16].
In turn, `Cc1ccc(-[n+]2cc([O-])on2)cc1` returned a cytotoxic concentration (CC50) in [5] of 33.1 mg/L (≈ 188 µM). For the same compound, in data set [8], the MCC amounted to 100 µg/mL. Further, the concentration giving a half-maximal response (EC50) in data set [11], in data set [12], in data set [22] and in [25] was above 20 mg/L in each case.
For the compound `O=C(O)c1cn(C2CC2)c2cc(N3CCNCC3)c(F)cc2c1=O` [CIPROFLOXACIN], the MIC amounted to 25 mg/L (≈ 75.4 µM) in data set [6], 50 mg/L (≈ 151 µM) in [15] and 50 mg/L (≈ 151 µM) in data set [18]. Besides, the zone of inhibition at 250 µg/mL in data set [7] was determined as 22 mm; in data set [9] it was 27 mm; in data set [10] it was 22 mm; in [16], 28 mm.

(Values after ChEMBL document CHEMBL3044741, “Synthesis of novel biologically active methylene derivatives of sydnones” (Med Chem Res, 2013).)
